Laboratory results: publication PMC3871529, “At a Supra-Physiological Concentration, Human Sexual Hormones Act as Quorum-Sensing Inhibitors” (PLoS ONE, 2013)

Experiments:
[1] = tested on: QS-signal accumulation in P. aeruginosa; experiment: AHL (C4-HSL, OC12-HSL) quantification in P. aeruginosa cultures by mass spectrometry; type: cell-based, Pseudomonas aeruginosa; details: QSI at 0.5 mg/ml, 18-hour
Procedure: (§1) Figure 5 QSIs modulated QS-signal accumulation in P. aeruginosa. Growth kinetics (n = 6) of P. aeruginosa was measured (OD600) in the presence of the QSIs (estradiol, estrone, estriol, hordenine and 4-NPO) at 0.5 mg/ml using DMSO as a negative control. Cell counts were assessed (CFU/ml) at 8- and 18-hour, and C4-HSL and OC12-HSL concentration (µM) were determined in the bacterial cultures at 18-hour. Statistically different values (Student's t test with α = 0.01) are noted by asterisks.
(§2) QS gene transcription in P. aeruginosa PAO1 was monitored using PAO1 strains carrying various gene promoters fused to a lacZ reporter gene, as described in Vandeputte et al., 2010 and Table 1. PAO1 reporter strains were prepared according to Vandeputte et al.. Briefly, 18-hours-old liquid cultures (50 µl) were diluted in order to obtain a starting OD600 nm comprised between 0.02 and 0.03 in fresh LB medium supplemented with 50 mM MOPS pH 7.0 (1 ml), carbenicillin (300 µg/ml) and 10 µl of the QSIs to be tested (OD were measured using a SpectraMax M2 device from Molecular Devices). Test and control QSIs were diluted in 100% DMSO (resulting after addition to the growth medium in a 1% final concentration of DMSO). Cultures were incubated for 18 hours at 37°C with agitation. After incubation, cell densities were assessed spectrophotometrically (OD600 nm) and β-galactosidase assays were performed using the substrate o-nitrophenyl-β-D-galactopyranoside as described previously, [29]. Promoterless-lacZ fusions were used as controls. AHLs were quantified as described in Vandeputte et al.. All tests were performed in quintuplicates and three biological repetitions. The statistical significance of each test was evaluated by conducting Student's t tests and two-way ANOVA combined with the Tukey post-analysis test using the GraphPad Prism software and p values≤0.01 were considered significant.

[2] = tested on: QS-regulated genes lasI, lasR, lasB, rhlI, rhlR, rhlA in P. aeruginosa PAO1; experiment: QS-regulated gene expression, lacZ transcriptional fusions in PAO1; type: cell-based, Pseudomonas aeruginosa; details: for expression of six QS-regulated genes (lasI, lasR, lasB, rhlI, rhlR, rhlA): QSI at 0.5 mg/ml, 18 hours at 37°C, β-galactosidase; for inhibition of expression of the regulators lasR and rhlR (rank) / impact on rhlI expression relative to naringenin, estradiol and estrone: QSIs at 0.5 mg/ml; for impact on rhlI expression relative to naringenin, estradiol and estrone: naringenin at 1 mg/ml
Procedure: Figure 6 QSIs modulated QS-regulated genes in P. aeruginosa. The β-galactosidase (b-Gal) activity in Miller unit (MU) of the transcriptional fusions lasI-lacZ (A), lasR-lacZ (B), lasB-lacZ (C), rhlI-lacZ (D), rhlR-lacZ (E), rhlA-lacZ (F), and aecA-lacZ(G) were measured in the presence of estradiol, estrone, estriol, hordenine at 0.5 mg/ml, and naringenin at 1 mg/ml as a positive control and DMSO as a negative control. The statistical significance of each test (n = 5 and three biological replicates) was evaluated by Student's t test (i.e. each test was compared with the DMSO condition). Asterisks indicate statistically different data (p value of ≤0.01).
as §2

LasR = molecular target: T1, LasR (Pseudomonas aeruginosa, UniProt P25084); experiment: E. coli bioindicator expressing LasR (pAL105, lasI::luxCDABE luminescence); type: cell-based; details: OC12-HSL 100 µM; QSIs at 0.1 mg/ml, naringenin and naringin at 0.5 mg/ml
T1 construct: expressed in transfected cells; host or cells: Escherichia coli JLD271 carrying pAL105 (pSB401-derivative, lasR+ lasI::luxCDABE)
Procedure: We determined whether the AHL-binding transcriptional factors LasR and RhlR were impaired in their capacity to activate expression of the QS-regulated genes in the presence of various QSIs. This was achieved by using two E. coli bioindicator strains expressing either LasR or RhlR proteins and harboring an appropriate reporter lux operon for measuring their transcriptional activity in the presence of OC12-HSL at 100 µM and C4-HSL at 10 µM, respectively. Adding C4-HSL to the pAL101-bioindicator or OC12-HSL to the pAL105-bioindicator induced the expression of the reporter lux operon and the consequent production of luminescence. In contrast, only background levels of luminescence were detected in control strains harboring the plasmids pAL102 or pAL106, which lacks the rhlR or lasR gene, respectively.
Figure 7 QSIs modulated activity of the AHL-sensors in P. aeruginosa. Luminescence of the reporting operon lux, expressed in relative light units (RLU/OD600), was measured in E. coli bioindicator strains harboring the LasR (A) and RhlR (B) AHL-sensing systems of P. aeruginosa in the presence of […]. The QSIs estradiol, estrone, estriol and hordenine were added at 0.1 mg/ml, while naringenin and naringin, added at 0.5 mg/ml, were used as QSI-reference and non-QSI reference, respectively. Each test (n = 6) was compared with the DMSO-condition using Student's t test. Asterisks indicate statistically different data (p value of ≤0.01).
Escherichia coli JLD271 biosensor strains harboring LasR- and RhlR-based plasmids pAL105 and pAL101 and control plasmids pAL106 (LasR^-) and pAL102 (RhlR^−) (Table 1) were prepared according to Vandeputte et al.. Briefly, these strains were grown in LB medium supplemented with tetracycline (10 µg/ml) and chloramphenicol (25 µg/ml) for 24 h. Then 50-µl portions of the cultures were subcultured in 1 ml of LB medium (the starting OD600 ranged between 0.02 and 0.025 corresponding to 5.10^6 CFU) supplemented with 10 µl of DMSO (1% [vol/vol] final), 10 µl of naringenin or naringin dissolved in DMSO (2 mM, final concentration), or 10 µl of the molecule to be tested. To induce the expression of the lux operon, 0, 1, 10 or […] of C4-HSL was added to pAL101 and pAL102, while OC12-HSL was added to pAL105 and pAL106. After incubation for 2 h at 37°C with agitation (175 rpm), 200 µl of culture was transferred to 96-well OptiPlate-96 F plates from Perkin-Elmer, and the luminescence of each sample was measured by using a TopCount NXT device from Perkin-Elmer. The LasR(pAL106) and RhlR(pAL102) biosensors were used for background subtraction, and the OD600 values were measured to account for the differences in cell density. All experiments were performed in six replicates. The statistical significance of each test was evaluated by conducting Student's t tests using the GraphPad Prism software, and p values ≤0.05 were considered significant. Naringenin (4′,5,7-trihydroxyflavanone), naringin (4′,5,7-trihydroxyflavanone 7-rhamnoglucoside), the AHLs OC12-HSL and C4-HSL were purchased from Sigma-Aldrich and dissolved freshly in 100% DMSO before use. Tested QSIs were dissolved in 100% DMSO before use.

P. aeruginosa = experiment: Growth kinetics of P. aeruginosa in the presence of QSIs; type: cell-based, Pseudomonas aeruginosa; details: QSI at 0.5 mg/ml, OD600 and CFU at 8 and 18 hour
Procedure: as §1, §2

T1 sequence (P25084 whole entry): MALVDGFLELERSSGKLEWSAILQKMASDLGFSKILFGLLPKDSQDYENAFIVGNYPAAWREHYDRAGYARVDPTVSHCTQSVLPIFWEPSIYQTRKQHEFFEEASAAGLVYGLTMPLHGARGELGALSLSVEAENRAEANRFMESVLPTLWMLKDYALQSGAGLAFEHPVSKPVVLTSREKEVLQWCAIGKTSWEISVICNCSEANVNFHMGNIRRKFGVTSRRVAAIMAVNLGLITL

Compound	C4-HSL concentration in cell cultures [1]	OC12-HSL concentration in cell cultures [1]	expression of six QS-regulated genes (lasI, lasR, lasB, rhlI, rhlR, rhlA) [2]	effect on LasR functionality (lux luminescence) (LasR)	effect on growth of P. aeruginosa (P. aeruginosa)	inhibition of expression of the regulators lasR and rhlR (rank) [2]	impact on rhlI expression relative to naringenin, estradiol and estrone [2]
3-Hydroxy-13-methyl-6,7,8,9,11,12,13,14,15,17-decahydro-cyclopenta[a] phenanthren-16-one [Compound 729, reference compound]	reduction	reduction	decreased	significant impact	did not affect the growth		
CN(C)CCc1ccc(O)cc1 [Compound 3499, hordenine]	reduction	reduction	decreased	significant impact	slightly delayed the growth	the most	lower impact
C[C@]12CC[C@@H]3c4ccc(O)cc4CC[C@H]3[C@@H]1C[C@@H](O)[C@@H]2O [Estriol, estriol]	reduction	reduction	decreased	significant impact	did not affect the growth	the least	lower impact
